Measurements: PubChem BioAssay AID192 (DTP/NCI, 2004)
Several values for one entry are separate records, joined by “and”; a condition that tells them apart may be missing. Equal entries are not always repeated. Toxic doses and inconclusive results are not listed. Peptide text beside a SMILES is read from it. * marks the point of attachment. Cbz = O=C(OCc1ccccc1)*

Tested on: BDF1 mice, B16 melanoma ip, median survival T/C
Test: NCI In Vivo Anticancer Drug Screen. Data for tumor model B16 Melanoma (intraperitoneal) in B6D2F1 (BDF1) mice
Details: endpoint: median survival time, higher = longer survival
Procedure, shortened: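 Survival or tumor size is measured after treatment of tumor-bearing mice and normalised to the vehicle-treated control group.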

[1] = dose: 100.0 mg/kg/injection, schedule: Q01DX009 (ip), vehicle: saline with Tween-80
[2] = dose: 0.38 mg/kg/injection, schedule: Q01DX009 (ip), vehicle: saline with Tween-80
[3] = dose: 6.25 mg/kg/injection, schedule: Q01DX009 (ip), vehicle: saline with Tween-80
[4] = dose: 12.5 mg/kg/injection, schedule: Q01DX009 (ip), vehicle: saline with Tween-80
[5] = dose: 50.0 mg/kg/injection, schedule: Q01DX009 (ip), vehicle: saline with Tween-80
[6] = dose: 200.0 mg/kg/injection, schedule: Q01DX009 (ip), vehicle: saline with Tween-80
[7] = dose: 400.0 mg/kg/injection, schedule: Q01DX009 (ip), vehicle: saline with Tween-80
[8] = dose: 25.0 mg/kg/injection, schedule: Q01DX009 (ip), vehicle: saline with Tween-80
[9] = dose: 25.0 mg/kg/injection, schedule: Q01DX009 (ip), vehicle: Klucel (hydroxypropylcellulose) (HPC)

## CCCCCCCCCCCCCCCCCC[n+]1cccc(C(=O)N2CCOCC2)c1
dose: 2.0 mg/kg/injection, schedule: Q01DX009 (ip), vehicle: saline sonified
  T/C: 92 % of control
dose: 4.0 mg/kg/injection, schedule: Q01DX009 (ip), vehicle: saline sonified
  T/C: 100 % of control
dose: 8.0 mg/kg/injection, schedule: Q01DX009 (ip), vehicle: saline sonified
  T/C: 92 % of control
dose: 16.0 mg/kg/injection, schedule: Q01DX009 (ip), vehicle: saline sonified
  T/C: 92 % of control

## O=C(CC(NC(=O)OCc1ccccc1)c1nn[nH]n1)OCc1ccccc1 (configuration not stated)
dose: 66.0 mg/kg/injection, schedule: Q01DX009 (ip), vehicle: saline with Tween-80
  T/C: 99 % of control
[1]
  T/C: 107 % of control
dose: 150.0 mg/kg/injection, schedule: Q01DX009 (ip), vehicle: saline with Tween-80
  T/C: 100 % of control

## Cc1cc(O)c2c(c1O)C(=O)C13C(=C2O)C(=O)C2C(O)C1C1C(O)C3C(=O)C3=C(O)c4c(O)cc(C)c(O)c4C(=O)C321 (configuration not stated)
dose: 0.19 mg/kg/injection, schedule: Q01DX009 (ip), vehicle: saline with Tween-80
  T/C: 105 % of control
dose: 0.39 mg/kg/injection, schedule: Q01DX009 (ip), vehicle: saline with Tween-80
  T/C: 114 % of control
dose: 0.78 mg/kg/injection, schedule: Q01DX009 (ip), vehicle: saline with Tween-80
  T/C: 121 % of control

## O=C(O)c1[nH]c(=O)[nH]c(=O)c1N1CCCCC1
dose: 25.0 mg/kg/injection, schedule: Q04DX003 (ip), vehicle: Klucel (hydroxypropylcellulose) (HPC)
  T/C: 110 % of control
dose: 50.0 mg/kg/injection, schedule: Q04DX003 (ip), vehicle: Klucel (hydroxypropylcellulose) (HPC)
  T/C: 86 % of control

## NCCc1c[nH]c2ccccc12
dose: 100.0 mg/kg/injection, schedule: Q04DX003 (ip), vehicle: saline
  T/C: 120 % of control
dose: 200.0 mg/kg/injection, schedule: Q04DX003 (ip), vehicle: saline
  T/C: 112 % of control

## COc1cc(NS(C)(=O)=O)ccc1Nc1c2ccc(Cl)cc2nc2c(OC)cccc12
[2]
  T/C: 123 % of control
dose: 0.75 mg/kg/injection, schedule: Q01DX009 (ip), vehicle: saline with Tween-80
  T/C: 110 % of control
dose: 0.8 mg/kg/injection, schedule: Q01DX005 (iv), vehicle: water
  T/C: 96 % of control
dose: 0.8 mg/kg/injection, schedule: Q04DX003 (iv), vehicle: water
  T/C: 100 % of control
dose: 1.6 mg/kg/injection, schedule: Q01DX005 (iv), vehicle: water
  T/C: 104 % of control
dose: 1.6 mg/kg/injection, schedule: Q04DX003 (iv), vehicle: water
  T/C: 92 % of control
dose: 2.3 mg/kg/injection, schedule: Q01DX009 (ip), vehicle: other
  T/C: 156 % of control
dose: 3.0 mg/kg/injection, schedule: Q01DX009 (ip), vehicle: saline with Tween-80
  T/C: 152 % of control
dose: 3.13 mg/kg/injection, schedule: Q01DX009 (ip), vehicle: saline with Tween-80
  T/C: 178 % of control
dose: 3.3 mg/kg/injection, schedule: Q01DX005 (iv), vehicle: water
  T/C: 106 % of control
dose: 3.3 mg/kg/injection, schedule: Q04DX003 (iv), vehicle: water
  T/C: 96 % of control
dose: 4.5 mg/kg/injection, schedule: Q01DX009 (ip), vehicle: other
  T/C: 184 % of control
[3]
  T/C: 194 % of control
dose: 6.5 mg/kg/injection, schedule: Q01DX005 (iv), vehicle: water
  T/C: 109 % of control
dose: 6.5 mg/kg/injection, schedule: Q04DX003 (iv), vehicle: water
  T/C: 105 % of control
dose: 8.0 mg/kg/injection, schedule: Q01DX009 (ip), vehicle: saline with Tween-80
  T/C: 178 % of control and 185 % of control
dose: 9.0 mg/kg/injection, schedule: Q01DX009 (ip), vehicle: other
  T/C: 241 % of control
dose: 9.0 mg/kg/injection, schedule: Q04DX003 (ip), vehicle: water
  T/C: 152 % of control
dose: 12.0 mg/kg/injection, schedule: Q01DX009 (ip), vehicle: saline with Tween-80
  T/C: 190 % of control and 219 % of control
[4]
  T/C: 236 % of control
dose: 13.0 mg/kg/injection, schedule: Q04DX003 (iv), vehicle: water
  T/C: 111 % of control
dose: 18.0 mg/kg/injection, schedule: Q01DX009 (ip), vehicle: saline with Tween-80
  T/C: 196 % of control
dose: 18.0 mg/kg/injection, schedule: Q04DX003 (ip), vehicle: water
  T/C: 172 % of control
dose: 36.0 mg/kg/injection, schedule: Q04DX003 (ip), vehicle: water
  T/C: 200 % of control

## O=C(c1ccncc1)c1c(Cc2ccccc2)ccc2ccccc12
[5]
  T/C: 100 % of control
[1]
  T/C: 99 % of control
[6]
  T/C: 95 % of control
[7]
  T/C: 95 % of control

## CC(=O)CC(C)=O.CC(=O)CC(C)=O.[Co]
[3]
  T/C: 97 % of control
[4]
  T/C: 102 % of control
[8]
  T/C: 91 % of control

## CN1C(=O)C=CC1=O
dose: 0.5 mg/kg/injection, schedule: Q02DX009 (ip), vehicle: saline
  T/C: 109 % of control
dose: 1.0 mg/kg/injection, schedule: Q02DX009 (ip), vehicle: saline
  T/C: 99 % of control
dose: 2.0 mg/kg/injection, schedule: Q02DX009 (ip), vehicle: saline
  T/C: 98 % of control
dose: 4.0 mg/kg/injection, schedule: Q02DX009 (ip), vehicle: saline
  T/C: 90 % of control

## Cc1cc(=O)[nH]c2c(C)cc(-c3cc(C)c4[nH]c(=O)cc(C)c4c3)cc12
dose: 100.0 mg/kg/injection, schedule: Q01DX009 (ip), vehicle: saline
  T/C: 102 % of control
dose: 200.0 mg/kg/injection, schedule: Q01DX009 (ip), vehicle: saline
  T/C: 108 % of control
dose: 400.0 mg/kg/injection, schedule: Q01DX009 (ip), vehicle: saline
  T/C: 105 % of control

## CN(C)C=NC1CCC(C(C)(C)C)CC1 (configuration not stated)
dose: 6.25 mg/kg/injection, schedule: Q01DX009 (ip), vehicle: Klucel (hydroxypropylcellulose) (HPC)
  T/C: 89 % of control
dose: 12.5 mg/kg/injection, schedule: Q01DX009 (ip), vehicle: Klucel (hydroxypropylcellulose) (HPC)
  T/C: 93 % of control
[9]
  T/C: 86 % of control

## CCOC(=O)CN=NNc1[nH]ncc1C(N)=O
dose: 100.0 mg/kg/injection, schedule: Q04DX003 (ip), vehicle: saline with Tween-80
  T/C: 100 % of control
dose: 200.0 mg/kg/injection, schedule: Q04DX003 (ip), vehicle: saline with Tween-80
  T/C: 104 % of control
dose: 400.0 mg/kg/injection, schedule: Q04DX003 (ip), vehicle: saline with Tween-80
  T/C: 111 % of control

## ClC[P+](c1ccccc1)(c1ccccc1)c1ccccc1
dose: 2.5 mg/kg/injection, schedule: Q01DX009 (ip), vehicle: saline
  T/C: 120 % of control
dose: 5.0 mg/kg/injection, schedule: Q01DX009 (ip), vehicle: saline
  T/C: 106 % of control
dose: 10.0 mg/kg/injection, schedule: Q01DX009 (ip), vehicle: saline
  T/C: 101 % of control

## CCCCNC(C)(C)C(SSSC(c1cccs1)C(C)(C)NCCCC)c1cccs1 (configuration not stated)
[4]
  T/C: 96 % of control
[8]
  T/C: 86 % of control

## CSCCC(NC(=O)C(Cc1ccccc1)NC(=O)OCc1ccccc1)C(=O)O (stereo not drawn) (Cbz-Phe-Met-OH; configuration not given here)
[5]
  T/C: 97 % of control
[1]
  T/C: 93 % of control

## COc1cc(C)c(C2NC(=O)c3ccccc3N2)cc1C (configuration not stated)
[9]
  T/C: 103 % of control
dose: 50.0 mg/kg/injection, schedule: Q01DX009 (ip), vehicle: Klucel (hydroxypropylcellulose) (HPC)
  T/C: 113 % of control
dose: 100.0 mg/kg/injection, schedule: Q01DX009 (ip), vehicle: Klucel (hydroxypropylcellulose) (HPC)
  T/C: 115 % of control
dose: 200.0 mg/kg/injection, schedule: Q01DX009 (ip), vehicle: Klucel (hydroxypropylcellulose) (HPC)
  T/C: 121 % of control

## CC(C)CC(Br)C(=O)NCC(=O)NC(Cc1ccccc1)C(=O)O (configuration not stated)
[5]
  T/C: 97 % of control
[1]
  T/C: 95 % of control
[6]
  T/C: 97 % of control

## CCCCCCCCCCCCCCP(I)(N(C)C)(N(C)C)N(C)C
dose: 0.1 mg/kg/injection, schedule: Q01DX009 (ip), vehicle: saline with Tween-80
  T/C: 90 % of control
dose: 0.2 mg/kg/injection, schedule: Q01DX009 (ip), vehicle: saline with Tween-80
  T/C: 94 % of control
[2]
  T/C: 88 % of control
dose: 0.4 mg/kg/injection, schedule: Q01DX009 (ip), vehicle: saline with Tween-80
  T/C: 93 % of control

## Cc1ccc(C(=O)CCC(=O)O)c(C)c1
[1]
  T/C: 90 % of control
[6]
  T/C: 93 % of control

## CC1CN1P(=S)(Oc1ccccc1)N1CC1C (configuration not stated)
[8]
  T/C: 97 % of control
[5]
  T/C: 95 % of control
[1]
  T/C: 93 % of control and 97 % of control
[7]
  T/C: 100 % of control
